According to patent US10538555B2, “Macrocyclic inhibitors of the PD-1/PD-L1 and CD80(B7-1)/PD-L1 protein/protein interactions” (BRISTOL-MYERS SQUIBB COMPANY, priority 2014, dated 2020):
Where a SMILES comes first, the peptide text is derived from it. Bridges are numbered along the chain shown (N, C = ends). [ ]: non-standard residue; d: D form. ξ: configuration not given here. Trp(1-CH2COOH) = N[C@@H](Cc1cn(CC(=O)O)c2ccccc12)C(=O)O; NMeW = CN[C@@H](Cc1c[nH]c2ccccc12)C(=O)O; Phe(4-F) = N[C@@H](Cc1ccc(F)cc1)C(=O)O; Hyp = O=C(O)[C@@H]1C[C@@H](O)CN1; NMeF = CN[C@@H](Cc1ccccc1)C(=O)O; 4Pal = N[C@@H](Cc1ccncc1)C(=O)O; NMeL = CN[C@@H](CC(C)C)C(=O)O; NMeNle = CCCC[C@H](NC)C(=O)O; Pip = O=C(O)[C@@H]1CCCCN1; dPip = O=C(O)[C@H]1CCCCN1; hSer = N[C@@H](CCO)C(=O)O; NMeA = CN[C@@H](C)C(=O)O; Orn = NCCC[C@H](N)C(=O)O; dThz = O=C(O)[C@H]1CSCN1; Dab = NCC[C@H](N)C(=O)O; Dap = NC[C@H](N)C(=O)O; ξC = NC(CS)C(=O)O; Sar = CNCC(=O)O

biological target: T1, Human PD-L1/PD-1 (Homo sapiens, UniProt Q9NZQ7); assay: HTRF Human PD-L1/PD-1 binding assay (PD-1-Ig/PD-L1-His); details: PD-L1-His 10 nM, PD-1-Ig 20 nM; class symbol; read-out: HTRF Human PD-L1/PD-1 Binding Assay IC50 Range
T1 construct: TVMV protease cleavage site (C); made in house; host or cells: HEK293T cells
T1 sequence (Q9NZQ7 with tags, fused parts or gaps): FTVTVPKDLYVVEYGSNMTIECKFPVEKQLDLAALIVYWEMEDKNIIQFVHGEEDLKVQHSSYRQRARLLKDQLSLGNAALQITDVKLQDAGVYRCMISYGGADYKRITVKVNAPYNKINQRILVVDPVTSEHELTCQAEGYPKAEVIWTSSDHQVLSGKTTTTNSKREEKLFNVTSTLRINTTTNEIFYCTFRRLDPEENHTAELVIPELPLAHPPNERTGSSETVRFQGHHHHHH
Summary of the method: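 Step 1: compound with PD-L1-His (10 nM final), 15 min. Step 2: PD-1-Ig (20 nM final), 15 min. Step 3: Eu-cryptate anti-Ig (1 nM) plus APC anti-His (20 nM), 30 min equilibration. Signal taken as 665 nm/620 nm ratio.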

Compound | IC50 [nM]
CCCC[C@H]1C(=O)N[C@@H](CC(N)=O)C(=O)N2CCC[C@H]2C(=O)N[C@@H](CO)C(=O)N[C@@H](CCO)C(=O)N2C[C@H](O)C[C@H]2C(=O)N[C@@H](Cc2c[nH]c3ccccc23)C(=O)N[C@@H](CCCN)C(=O)N[C@@H](Cc2c[nH]c3ccccc23)C(=O)N(C)[C@@H](C)C(=O)N(C)CC(=O)N[C@@H](CCCNC(=N)N)C(=O)NC(C(=O)NCC(N)=O)CSCC(=O)N[C@@H](Cc2ccc(O)cc2)C(=O)N1C (stereo partly drawn) [Example 10207] ({CH2CO}-Y[NMeNle]NPS[hSer][Hyp]W[Orn]W[NMeA][Sar]R[ξC]G-NH2; thioether N-14) | 1000 to 10000
CCCC[C@H]1C(=O)N2CCC[C@@H]2C(=O)N[C@@H](CC(=O)O)C(=O)N[C@@H](C(C)C)C(=O)N(C)[C@@H](CC(C)C)C(=O)N[C@@H](Cc2ccc(O)cc2)C(=O)N2CCCC[C@@H]2C(=O)N[C@@H](Cc2c[nH]c3ccccc23)C(=O)N[C@@H](Cc2ccc(O)cc2)C(=O)N[C@@H](CC(C)C)C(=O)N[C@H](C(=O)NCC(N)=O)CSCC(=O)N[C@@H](Cc2ccc(F)cc2)C(=O)N(C)[C@@H](Cc2ccccc2)C(=O)N1C [Example 9250] ({CH2CO}-[Phe(4-F)][NMeF][NMeNle][dP]DV[NMeL]Y[dPip]WYLCG-NH2; thioether N-13) | 1000 to 10000
CCCC[C@H]1C(=O)N[C@@H](CN)C(=O)N[C@H](C(=O)NCC(N)=O)CSCC(=O)N[C@@H](Cc2ccc(O)cc2)C(=O)N(C)[C@@H](C)C(=O)N[C@@H](CC(=O)O)C(=O)N2CCC[C@H]2C(=O)N[C@@H](Cc2c[nH]cn2)C(=O)N[C@@H](CCC(=O)O)C(=O)N2C[C@H](O)C[C@H]2C(=O)N[C@@H](Cc2c[nH]c3ccccc23)C(=O)N[C@@H](CCN)C(=O)N[C@@H](Cc2c[nH]c3ccccc23)C(=O)N(C)[C@@H](Cc2c[nH]c3ccccc23)C(=O)N1C [Example 5229] ({CH2CO}-Y[NMeA]DPHE[Hyp]W[Dab]W[NMeW][NMeNle][Dap]CG-NH2; thioether N-14) | 1 to 9.9
CCCC[C@H]1C(=O)N(C)CC(=O)N[C@@H](CC(=O)O)C(=O)N[C@@H](C(C)C)C(=O)N(C)[C@@H](Cc2ccccc2)C(=O)N[C@@H](Cc2ccc(O)cc2)C(=O)N(C)CC(=O)N[C@@H](Cc2c[nH]c3ccccc23)C(=O)N[C@@H](Cc2ccc(O)cc2)C(=O)N[C@@H](CC(C)C)C(=O)N[C@H](C(=O)NCC(N)=O)CSCC(=O)N[C@@H](Cc2ccncc2)C(=O)N(C)[C@@H](Cc2ccccc2)C(=O)N1C [Example 3242] ({CH2CO}-[4Pal][NMeF][NMeNle][Sar]DV[NMeF]Y[Sar]WYLCG-NH2; thioether N-13) | 100 to 990
CCCC[C@H]1C(=O)N(C)[C@@H](CCCC)C(=O)N[C@@H](CCC(=O)O)C(=O)N[C@H](C(=O)NCC(N)=O)CSCC(=O)N[C@@H](Cc2ccc(OC)cc2)C(=O)N(C)[C@@H](C)C(=O)N[C@@H](CCN)C(=O)N2CCC[C@H]2C(=O)N[C@@H](Cc2cnc[nH]2)C(=O)N[C@@H](CCCCN)C(=O)N2C[C@H](O)C[C@H]2C(=O)N[C@@H](Cc2c[nH]c3ccccc23)C(=O)N[C@@H](CCN)C(=O)N[C@@H](Cc2c[nH]c3ccccc23)C(=O)N1C [Example 7120] ({CH2CO}-Y(Me)[NMeA][Dab]PHK[Hyp]W[Dab]W[NMeNle][NMeNle]ECG-NH2; thioether N-14) | 1 to 9.9
CCCC[C@H]1C(=O)N2CSC[C@@H]2C(=O)N[C@@H](CC(=O)O)C(=O)N[C@@H](C(C)C)C(=O)N(C)[C@@H](Cc2ccccc2)C(=O)N[C@@H](Cc2ccc(O)cc2)C(=O)N2CCC[C@@H]2C(=O)N[C@@H](Cc2c[nH]c3ccccc23)C(=O)N[C@@H](Cc2ccc(O)cc2)C(=O)N[C@@H](CC(C)C)C(=O)N[C@H](C(=O)NCC(N)=O)CSCC(=O)N[C@@H](Cc2ccccc2)C(=O)N(C)[C@@H](Cc2ccccc2)C(=O)N1C [Example 10072] ({CH2CO}-F[NMeF][NMeNle][dThz]DV[NMeF]Y[dP]WYLCG-NH2; thioether N-13) | 1 to 9.9
CCCC[C@H]1C(=O)N(C)[C@@H](CCCC)C(=O)NCC(=O)N[C@H](C(=O)NCC(N)=O)CSCC(=O)N[C@@H](Cc2ccc(O)cc2)C(=O)N(C)[C@@H](C)C(=O)N[C@@H](CC(N)=O)C(=O)N2CCC[C@H]2C(=O)N[C@@H](Cc2c[nH]cn2)C(=O)N[C@@H](CCC(N)=O)C(=O)N2C[C@H](O)C[C@H]2C(=O)N[C@@H](Cc2c[nH]c3ccccc23)C(=O)NCC(=O)N[C@@H](Cc2c[nH]c3ccccc23)C(=O)N1C [Example 5198] ({CH2CO}-Y[NMeA]NPHQ[Hyp]WGW[NMeNle][NMeNle]GCG-NH2; thioether N-14) | 10 to 99.9
CCCC[C@H]1C(=O)N(C)[C@@H](CCCC)C(=O)N[C@@H](CCC(=O)O)C(=O)N[C@H](C(=O)NCC(N)=O)CSCC(=O)N[C@@H](Cc2ccc(O)cc2)C(=O)N2CCCC[C@H]2C(=O)N[C@@H](CC(N)=O)C(=O)N2CCC[C@H]2C(=O)N[C@@H](Cc2cnc[nH]2)C(=O)N[C@@H](CCC(N)=O)C(=O)N2C[C@H](O)C[C@H]2C(=O)N[C@@H](Cc2c[nH]c3ccccc23)C(=O)N[C@@H](CO)C(=O)N[C@@H](Cc2c[nH]c3ccccc23)C(=O)N1C [Example 1250] ({CH2CO}-Y[Pip]NPHQ[Hyp]WSW[NMeNle][NMeNle]ECG-NH2; thioether N-14) | 1 to 9.9

Other lines, results leading:

IC50 [nM] | Compound
1 to 9.9 | CCCC[C@H]1C(=O)N(C)[C@@H](CCCC)C(=O)N[C@@H](CC(C)C)C(=O)N[C@H](C(=O)NCC(N)=O)CSCC(=O)N[C@@H](Cc2ccc(O)cc2)C(=O)N(C)[C@@H](C)C(=O)N[C@@H](CC(N)=O)C(=O)N2CCC[C@H]2C(=O)N[C@@H](CN)C(=O)N[C@@H](CC(C)C)C(=O)N2CCC[C@H]2C(=O)N[C@@H](Cc2c[nH]c3ccccc23)C(=O)N[C@@H](CCN)C(=O)N[C@@H](Cc2ccc(O)cc2)C(=O)N1C [Example 6272] ({CH2CO}-Y[NMeA]NP[Dap]LPW[Dab]Y[NMeNle][NMeNle]LCG-NH2; thioether N-14)
1 to 9.9 | CCCC[C@H]1C(=O)N(C)[C@@H](CCCC)C(=O)N[C@@H](CCC(=O)O)C(=O)N[C@H](C(=O)NCC(N)=O)CSCC(=O)N[C@@H](Cc2ccc(O)cc2)C(=O)N(C)[C@@H](C)C(=O)N[C@@H](CC(=O)O)C(=O)N2CCC[C@H]2C(=O)N[C@@H](CN)C(=O)N[C@@H](CC(C)C)C(=O)N2C[C@H](O)C[C@H]2C(=O)N[C@@H](Cc2c[nH]c3ccccc23)C(=O)N[C@@H](CO)C(=O)N[C@@H](Cc2c[nH]c3ccccc23)C(=O)N1C [Example 5164] ({CH2CO}-Y[NMeA]DP[Dap]L[Hyp]WSW[NMeNle][NMeNle]ECG-NH2; thioether N-14)
1 to 9.9 | CCCC[C@H]1C(=O)N(C)[C@@H](CCCC)C(=O)N[C@@H](CCC(=O)O)C(=O)N[C@H](C(=O)NCC(N)=O)CSCC(=O)N[C@@H](Cc2ccc(O)cc2)C(=O)N(C)[C@@H](C)C(=O)N[C@@H](CC(=O)O)C(=O)N2CCC[C@H]2C(=O)N[C@@H](CO)C(=O)N[C@@H](CCC(N)=O)C(=O)N2C[C@H](O)C[C@H]2C(=O)N[C@@H](Cc2c[nH]c3ccccc23)C(=O)N[C@@H](CO)C(=O)N[C@@H](Cc2c[nH]c3ccccc23)C(=O)N1C [Example 5214] ({CH2CO}-Y[NMeA]DPSQ[Hyp]WSW[NMeNle][NMeNle]ECG-NH2; thioether N-14)
10 to 99.9 | CCCC[C@H]1C(=O)N(C)[C@@H](CCCC)C(=O)N[C@@H](C)C(=O)N[C@H](C(=O)NCC(N)=O)CSCC(=O)N[C@@H](Cc2ccc(O)cc2)C(=O)N(C)[C@@H](C)C(=O)N[C@@H](CC(N)=O)C(=O)N2CCC[C@H]2C(=O)N[C@@H](CN)C(=O)N[C@@H](CC(C)C)C(=O)N2C[C@H](O)C[C@H]2C(=O)N[C@@H](Cc2c[nH]c3ccccc23)C(=O)N[C@@H](CCN)C(=O)N[C@@H](Cc2cn(CC(=O)O)c3ccccc23)C(=O)N1C [Example 5166] ({CH2CO}-Y[NMeA]NP[Dap]L[Hyp]W[Dab][Trp(1-CH2COOH)][NMeNle][NMeNle]ACG-NH2; thioether N-14)
1 to 9.9 | CCCC[C@H]1C(=O)N(C)[C@@H](CCCC)C(=O)N[C@@H](CN)C(=O)N[C@H](C(=O)NCC(N)=O)CSCC(=O)N[C@@H](Cc2ccc(O)cc2)C(=O)N(C)[C@@H](C)C(=O)N[C@@H](CC(N)=O)C(=O)N2CCC[C@H]2C(=O)N[C@@H](Cc2cnc[nH]2)C(=O)N[C@@H](CCC(=O)O)C(=O)N2C[C@H](O)C[C@H]2C(=O)N[C@@H](Cc2c[nH]c3ccccc23)C(=O)N[C@@H](CO)C(=O)N[C@@H](Cc2cn(CC(=O)O)c3ccccc23)C(=O)N1C [Example 6244] ({CH2CO}-Y[NMeA]NPHE[Hyp]WS[Trp(1-CH2COOH)][NMeNle][NMeNle][Dap]CG-NH2; thioether N-14)
10 to 99.9 | CCCC[C@H]1C(=O)N(C)[C@@H](CCCC)C(=O)N[C@@H](CCC(=O)O)C(=O)N[C@H](C(=O)NCC(N)=O)CSCC(=O)N[C@@H](Cc2ccc(OC)cc2)C(=O)N(C)[C@@H](C)C(=O)N[C@@H](CC(N)=O)C(=O)N2CCC[C@H]2C(=O)N[C@@H](CN)C(=O)N[C@@H](CCCCN)C(=O)N2C[C@H](O)C[C@H]2C(=O)N[C@@H](Cc2c[nH]c3ccccc23)C(=O)N[C@@H](CC(=O)O)C(=O)N[C@@H](Cc2c[nH]c3ccccc23)C(=O)N1C [Example 7127] ({CH2CO}-Y(Me)[NMeA]NP[Dap]K[Hyp]WDW[NMeNle][NMeNle]ECG-NH2; thioether N-14)
1 to 9.9 | CCCC[C@H]1C(=O)N(C)[C@@H](CCCC)C(=O)N[C@@H](CC(C)C)C(=O)N[C@H](C(=O)O)CSCC(=O)N[C@@H](Cc2ccc(O)cc2)C(=O)N(C)[C@@H](C)C(=O)N[C@@H](CC(N)=O)C(=O)N2CCC[C@H]2C(=O)N[C@@H](CN)C(=O)N[C@@H](CC(C)C)C(=O)N2C[C@H](O)C[C@H]2C(=O)N[C@@H](Cc2c[nH]c3ccccc23)C(=O)N[C@@H](CCCN)C(=O)N[C@@H](Cc2cn(CC(=O)O)c3ccccc23)C(=O)N1C [Example 5199] ({CH2CO}-Y[NMeA]NP[Dap]L[Hyp]W[Orn][Trp(1-CH2COOH)][NMeNle][NMeNle]LC-OH; thioether N-14)
